# Experimental data from article PMC8037406, “Symbiotic NCR Peptide Fragments Affect the Viability, Morphology and Biofilm Formation of Candida Species” (International Journal of Molecular Sciences, 2021).
# Where two headings read alike, the source gives them in different places. Where a SMILES comes first, the peptide text is derived from it. Bridges are numbered along the chain shown (N, C = ends).
# Key:
# [1] = test system: Candida parapsilosis CBS 604; assay: microbe, parasite or virus in culture; format: cell-based; details: micro-dilution, YNB medium, 4 × 10^4 cell/mL, 48 h, 30 °C, OD 620 nm; MIC = growth inhibition ≥90%; peptides 25 to 1.56 µM, fluconazole 200 to 0.78 µM; three biological repeats in triplicates; further: key: -: no growth inhibition was observed
# Experimental: (§1) The antifungal activity of all the 14 peptides was tested against the following opportunistic human pathogen Candida species and strains: C. albicans strains ATCC 10231, SC 5314 and SZMC 1458, C. auris 0381, C. glabrata CBS 138, C. parapsilosis CBS 604 and C. tropicalis CBS 94.
# (§2) All the Candida strains (Table 4) were grown overnight in YPD medium (1% pepton, 1% dextrose, 0.5% yeast extract) at 30 °C in water bath shaker prior to each experiments. The cells were harvested by centrifugation (5 min, 3000× g) washed twice with sterile distilled water and suspended in 5-fold diluted Difco Yeast Nitrogen Base w/o Amino Acids medium (Becton, Dickinson and Company, Sparks, MD, USA) supplemented with 1% dextrose, referred to as YNB medium in the text. Cells were counted in Bürker chamber and diluted to the proper concentration.
# (§3) The growth inhibition of the peptides listed in Table 1 was tested in 96-well microtiter plates on Candida strains. The minimal inhibitory concentration (MIC) was determined with the micro-dilution method by adding 5 µL serially two-fold-diluted peptide solution to 95 µL of cell suspension (4 × 10^4 cell/mL) in YNB medium. After 48 h of incubation at 30 °C the optical density of the cultures was measured at 620 nm in SPECTROstar Nano plate reader (BMG LabTech, Offenburg, Germany). Minimal inhibitory concentration was defined as growth inhibition ≥90% compared to 100% growth of the untreated control. The experiments were carried out in three biological repeats always in triplicates.
# Candida auris 0381 = assay: microbe, parasite or virus in culture; format: cell-based; details: micro-dilution, YNB medium, 4 × 10^4 cell/mL, 48 h, 30 °C, OD 620 nm; MIC = growth inhibition ≥90%; peptides 25 to 1.56 µM, fluconazole 200 to 0.78 µM; three biological repeats in triplicates; further: key: -: no growth inhibition was observed
# Experimental: as §1, §2, §3
# [2] = test system: C. albicans SZMC 1458 biofilm; assay: Biofilm formation assay, XTT; format: cell-based, Candida albicans; details: 72 h, 37 °C, 5 % CO2, 1/8AIM medium, p ≤ 0.0001
# [3] = test system: C. tropicalis CBS 94 biofilm; assay: Biofilm formation assay, XTT; format: cell-based, Candida tropicalis; details: 72 h, 37 °C, 5 % CO2, 1/8AIM medium, p ≤ 0.0001
# Candida cells = assay: Fungicide effect, spotting of treated cells on solid YPD medium; format: cell-based, Candida species; details: 1.56–25 µM, 24 h treatment, dilutions spotted on solid YPD medium, 48 h, 30 °C
# Experimental: To determine whether the inhibitory effect of the peptides is generated by fungistatic or fungicide action, the Candida cells were treated with the peptides in the same concentration range (1.56–25 µM) as in the growth inhibition assay. After 24 h 5 µL sample from the untreated control cells and from the peptide treated cells was added to 95 µL water and diluted further 10- and 100-fold. From each dilution, 5 µL was placed on solid medium and the growth of the control and peptide treated cells was compared after 48 h incubation at 30 °C. This assay confirmed that all the effective peptides, NCR335N1–19, NCR335N7–21, NCR335C1–33, NCR335C13–33, NCR335C17–33, NCR169C17–38, NCR169C17–38ox, NCR169C17–38W10,20/A provoked growth inhibition through fungicidal actions (Figure A2). The fungicide concentrations, required for the complete elimination of the Candida cells, were either equal to or twice higher than the minimum inhibitory concentrations presented in Table 2.
# The same initial experimental setting was used to determine the fungicide effect of the peptides. Five µL samples were taken from the cultures after 24 h and were added to 95 µL sterile distilled water, and diluted to 10- and 100-fold (indicated as 10^4, 10^3 and 10^2 based on the cell number of the control culture in Figure A2). Five µL from each dilution were placed on solid YPD medium and the growth of the strains was detected after 48 h incubation at 30 °C.
# [4] = test system: C. albicans ATCC 10231 biofilm; assay: Biofilm formation assay, XTT; format: cell-based, Candida albicans; details: 72 h, 37 °C, 5 % CO2, 1/8AIM medium, p ≤ 0.0001
# [5] = test system: C. albicans SC 5314 biofilm; assay: Biofilm formation assay, XTT; format: cell-based, Candida albicans; details: 72 h, 37 °C, 5 % CO2, 1/8AIM medium, p ≤ 0.0001
# C. auris = details: C. auris; for reduction of MIC in the synergistic combination: compared with single use
# Experimental: Amphotericin B, due to its high toxicity was not included in this assay.
# The effects of the different combinations of fluconazole and NCR335C17–33, NCR169C17–38 or NCR169C17–38ox were determined by standard checkerboard titration method. The fluconazole was tested in a concentration range from 6.25 to 75 µM, NCR169C17–38 and NCR169C17–38ox from 0.78 to 12.50 µM, NCR335C17–33 from 1.56 to 25 µM. The initial cell concentration in each well was 4 × 10^4 cell/mL. After the incubation for 72 h at 30 °C, the optical density of the cultures was detected at 620 nm in SPECTROstar Nano plate reader (BMG LabTech, Offenburg, Germany). The inhibitory concentrations were determined for each compound alone and in combinations. The experiments were carried out at least three times. The effect of combinations was evaluated by fractional inhibitory concentration (FIC) index. FIC = FICA + FICB. FICA = (MICA in combination)/(MICA alone); FICB = (MICB in combination)/(MICB alone)
# C. tropicalis CBS 94 = assay: Yeast-hypha morphology, bright-field microscopy; format: cell-based, Candida tropicalis; details: 0.78 µM peptide, 48 h, 1/8AIM medium
# Source text: (§4) As hyphae formation is an important virulence factor, we investigated how the broad range activity peptides, NCR335C17–33, NCR169C17–38 and NCR169C17–38ox affect the morphological switch of C. albicans ATCC 10231 and C. tropicalis between the hyphal and yeast growth forms at sub-lethal concentrations (Figure 1). […] However, not only the morphology changed, but the cell number also declined, particularly in the latter case.
# (§5) To induce morphological change of C. albicans and C. tropicalis YNB medium was changed for eight-fold diluted AIM-V+AlbuMAX (BSA) medium (Gibco, Thermo Fisher Scientific, Dublin, Ireland) referred to as 1/8AIM in the text.
# (§6) Bright-field microscopy. The morphology of C. albicans ATCC 10231 and C. tropicalis cells was examined after 48 h incubation with the selected peptides (NCR335C17–33 and NCR169C17–38) by Zeiss Axio Observer inverted microscope (Carl Zeiss AG, Jena, Germany). The concentration of the NCR335C17–33 was 1.56 and 3.12 µM, NCR169C17–38 1.56 or 3.12 µM while NCR169C17–38ox 0.78 or 3.12 µM, the initial cell concentration was set to 4 × 10^4 cell/mL. Cells cultivated without peptides were used as control.
# C. albicans ATCC 10231 = assay: Yeast-hypha morphology, bright-field microscopy; format: cell-based, Candida albicans; details: 3.12 µM peptide, 48 h, 1/8AIM medium, sub-lethal concentration
# Source text: as §4, §5, §6
# [6] = test system: Candida tropicalis CBS 94; assay: microbe, parasite or virus in culture; format: cell-based; details: micro-dilution, YNB medium, 4 × 10^4 cell/mL, 48 h, 30 °C, OD 620 nm; MIC = growth inhibition ≥90%; peptides 25 to 1.56 µM, fluconazole 200 to 0.78 µM; three biological repeats in triplicates; further: key: -: no growth inhibition was observed
# Experimental: as §1, §2, §3
# Candida albicans = details: cited from earlier work
# Source text: In addition to bacteria, NCRs can also kill fungi. […] However, we noticed that, unlike the full sequence of NCR169, its C-terminal half was highly cationic (pI: 10.1) leading us to assume that this part may have antimicrobial activity.
Compound,"Minimal inhibitory concentration, Cp CBS 604 [1]","Minimal inhibitory concentration, Cau 0381 (Candida auris 0381)","concentration significantly inhibiting biofilm formation, relative to MIC [2]","concentration significantly inhibiting biofilm formation, relative to MIC [3]",growth inhibition by fungistatic or fungicide action (Candida cells),"concentration significantly inhibiting biofilm formation, relative to MIC [4]","concentration significantly inhibiting biofilm formation, relative to MIC [5]",further results
"CC[C@H](C)[C@H](NC(=O)[C@H](CCCCN)NC(=O)[C@H](Cc1ccccc1)NC(=O)[C@H](CC(C)C)NC(=O)[C@@H]1CCCN1C(=O)[C@H](CCCCN)NC(=O)[C@H](CCCCN)NC(=O)[C@H](CO)NC(=O)[C@@H](N)CCCCN)C(=O)N[C@@H](C)C(=O)N[C@@H](CCCCN)C(=O)N[C@@H](CS)C(=O)N[C@H](C(=O)N[C@@H](CCC(=O)O)C(=O)N[C@@H](CC(N)=O)C(=O)N[C@H](C(=O)N[C@@H](CS)C(=O)N[C@H](C(=O)N[C@@H](CC(C)C)C(=O)N[C@@H](C)C(=O)N[C@@H](Cc1ccc(O)cc1)C(=O)N[C@@H](CCCCN)C(N)=O)C(C)C)C(C)C)C(C)C [NCR169C17–38W10,20/A] (H-KSKKPLFKIAKCVENVCVLAYK-NH2; N-terminus assumed)",-,-,MIC,one-fourth of the MIC,fungicidal,half MIC,half MIC,
CC[C@H](C)[C@H](NC(=O)[C@H](CCCCN)NC(=O)[C@H](Cc1ccccc1)NC(=O)[C@H](CC(C)C)NC(=O)[C@@H]1CCCN1C(=O)[C@H](CCCCN)NC(=O)[C@H](CCCCN)NC(=O)[C@H](CO)NC(=O)[C@@H](N)CCCCN)C(=O)N[C@@H](Cc1c[nH]c2ccccc12)C(=O)N[C@@H](CCCCN)C(=O)N[C@H]1CSSC[C@@H](C(=O)N[C@H](C(=O)N[C@@H](CC(C)C)C(=O)N[C@@H](Cc2c[nH]c3ccccc23)C(=O)N[C@@H](Cc2ccc(O)cc2)C(=O)N[C@@H](CCCCN)C(N)=O)C(C)C)NC(=O)[C@H](C(C)C)NC(=O)[C@H](CC(N)=O)NC(=O)[C@H](CCC(=O)O)NC(=O)[C@H](C(C)C)NC1=O [NCR169C17–38ox] (H-KSKKPLFKIWKCVENVCVLWYK-NH2; disulfide 12-17; N-terminus assumed),-,,half MIC,half MIC,fungicidal,MIC,one-fourth of the MIC,Action (C. auris; NCR169C17–38 + NCR169C17–38ox): Synergism; reduction of MIC in the synergistic combination (C. auris; NCR169C17–38 + NCR169C17–38ox): 8 ×; Action (C. auris; fluconazole + NCR169C17–38ox): Synergism; reduction of MIC in the synergistic combination (C. auris; fluconazole + NCR169C17–38ox): 8 ×; effect on hyphal/yeast growth form (C. tropicalis CBS 94): the only form of the culture; effect on hyphal growth (C. albicans ATCC 10231): completely inhibited the hyphal growth
CC[C@H](C)[C@H](NC(=O)[C@@H]1CCCN1C(=O)[C@@H](NC(=O)[C@H](CS)NC(=O)[C@H](Cc1ccc(O)cc1)NC(=O)[C@H](CO)NC(=O)[C@H](CCCCN)NC(=O)[C@H](CCCNC(=N)N)NC(=O)[C@H](CS)NC(=O)[C@H](CCCNC(=N)N)NC(=O)[C@@H](NC(=O)[C@H](CC(N)=O)NC(=O)[C@H](C)NC(=O)[C@H](CCCNC(=N)N)NC(=O)[C@H](CCCNC(=N)N)NC(=O)[C@H](CC(C)C)NC(=O)[C@H](CCCCN)NC(=O)[C@@H]1CCCN1C(=O)[C@H](CS)NC(=O)[C@H](CC(=O)O)NC(=O)[C@H](CCCCN)NC(=O)[C@H](CC(N)=O)NC(=O)[C@@H](NC(=O)[C@H](CCCCN)NC(=O)[C@H](CS)NC(=O)[C@H](CC(=O)O)NC(=O)[C@H](CO)NC(=O)[C@H](CC(C)C)NC(=O)[C@@H](NC(=O)[C@H](CC(C)C)NC(=O)[C@H](CO)NC(=O)[C@H](Cc1ccccc1)NC(=O)[C@@H](N)Cc1c[nH]cn1)[C@@H](C)CC)[C@@H](C)O)C(C)C)C(C)C)C(N)=O [NCR335C1–33] (H-HFSLILSDCKTNKDCPKLRRANVRCRKSYCVPI-NH2; N-terminus assumed),,-,,,fungicidal,,,"Minimal inhibitory concentration, Ct CBS 94 [6]: -"
EDIGHIKYCGIVDDCYKSKKPLFKIWKCVENVCVLWYK [NCR169],,,,,,,,activity against C. albicans (Candida albicans; in the studied concentration range): inactive
"RLNTTFRPLNFKMLRFWGQNRNIMKHRGQKVHFSLILSDCKTNKDCPKLRRANVRCRKSYCVPI [NCR335, 64 amino acid long cationic nodule specific cysteine-rich peptide of Medicago truncatula]",,,,,,,,"MIC (Candida albicans; C. albicans): 1.4 to 2.5 µM; minimal inhibitory concentrations (MIC), range over the listed cationic NCR peptides (Candida albicans; C. albicans): 1.4 to 10 µM"
